Laboratory results from ChEMBL document CHEMBL1137334 (J Med Chem, 2006).
Values after ≈ are worked out from the molar mass of the structure shown.

Legend:
[1] = system: A549; assay: Inhibition of A549 cell migration by microdroplet migration assay; type: functional, cell-based; details: Homo sapiens
[2] = Clearance in female rat at 20 mg/kg, po and 2 mg/kg, iv; type: ADME, organism-based; details: in vivo
[3] = AUC (0-24h) in mouse at 20 mg/kg, po; type: ADME, organism-based; design: time < 24 hr, dose 20 mg/kg, route oral; details: plasma
[4] = organism: Canis familiaris; assay: (§1) Half life in male dog; type: ADME, organism-based, Canis lupus familiaris; details: in vivo
[5] = organism: Canis familiaris; assay: (§2) Volume of distribution in male dog; type: ADME, organism-based, Canis lupus familiaris; details: in vivo
[6] = biological target: Vascular endothelial growth factor receptor 2 (Homo sapiens, UniProt P35968); assay: Inhibition of KDR
[7] = Bioavailability in male dog; type: ADME, organism-based, Canis lupus familiaris; details: in vivo
[8] = Bioavailability in female rat at 20 mg/kg, po and 2 mg/kg, iv; type: ADME, organism-based; details: in vivo
[9] = Volume of distribution in female rat at 20 mg/kg, po and 2 mg/kg, iv; type: ADME, organism-based; details: in vivo, read-out: Vdss
[10] = biological target: Proto-oncogene tyrosine-protein kinase Src (Homo sapiens, UniProt P12931)
Description: Inhibition of human c-Src in NIH3T3 cells

[11] = Dissociation constant, pKa of the basic side chain of compound; type: physicochemical
[12] = Lipophilicity, log D at pH 7.4; type: physicochemical; details: buffer
[13] = Aqueous solubility at pH 7.4; type: physicochemical
[14] = Percent of unbound ligand in rat plasma; type: ADME, organism-based
[15] = Percent of unbound ligand in dog plasma; type: ADME, organism-based, Canis lupus familiaris
[16] = biological target: Tyrosine-protein kinase CSK (Homo sapiens, UniProt P41240); assay: Inhibition of recombinant CSK by ELISA
[17] = biological target: Tyrosine-protein kinase Yes (Homo sapiens, UniProt P07947); assay: Inhibition of recombinant C-YES by ELISA
[18] = biological target: Vascular endothelial growth factor receptor 1 (Homo sapiens, UniProt P17948); assay: Inhibition of recombinant FLT1 by ELISA
[19] = biological target: Vascular endothelial growth factor receptor 3 (Homo sapiens, UniProt P35916); assay: Inhibition of FLT4 by ELISA
[20] = biological target: Fibroblast growth factor receptor 1 (Homo sapiens, UniProt P11362); assay: Inhibition of recombinant FGFR1 by ELISA
[21] = biological target: Aurora kinase B (Homo sapiens, UniProt Q96GD4); assay: Inhibition of recombinant Aurora B by ELISA
[22] = biological target: Cyclin-dependent kinase 2 (Homo sapiens, UniProt P24941); assay: Inhibition of CDK2 by SPA
[23] = biological target: Glycogen synthase kinase-3 beta (Homo sapiens, UniProt P49841); assay: Inhibition of GSK3-beta
[24] = Inhibition of Chk; design: species or system Homo sapiens
[25] = biological target: c-Jun N-terminal kinase, JNK (Homo sapiens, UniProt P45983+P53779+P45984); assay: Inhibition of JNK; type: protein assay
[26] = biological target: 3-phosphoinositide-dependent protein kinase 1 (Homo sapiens, UniProt O15530); assay: Inhibition of PDK
[27] = biological target: cAMP-dependent protein kinase (PKA) (Homo sapiens, UniProt P22694+P17612+P22612); assay: Inhibition of PKA; type: protein assay
[28] = Inhibition of PI3K; design: species or system Homo sapiens
[29] = biological target: Protein kinase C alpha type (Homo sapiens, UniProt P17252); assay: Inhibition of PKCalpha
[30] = Half life in rat at 20 mg/kg, po and 2 mg/kg, iv; type: ADME, organism-based; details: in vivo
[31] = as §1; type: ADME, organism-based, Canis lupus familiaris; details: male, in vivo
[32] = Volume of distribution in rat at 20 mg/kg, po and 2 mg/kg, iv; type: ADME, organism-based; details: in vivo, read-out: Vdss
[33] = as §2; type: ADME, organism-based, Canis lupus familiaris; details: male, in vivo, read-out: Vdss
[34] = Clearance in rat at 20 mg/kg, po and 2 mg/kg, iv; type: ADME, organism-based; details: in vivo
[35] = Clearance in male dog; type: ADME, organism-based, Canis lupus familiaris; details: in vivo
[36] = Bioavailability in rat at 20 mg/kg, po and 2 mg/kg, iv; type: ADME, organism-based; details: in vivo
[37] = system: NIH3T3; assay: Antiproliferative activity against NIH 3T3 cells xenografted in athymic rat measured as inhibition of tumor volume at 10 mg/kg/day after 18 days; type: functional; details: NIH3T3, 432 h
[38] = Permeability from apical to basolateral side of NIH 3T3 cell; type: ADME, cell-based, NIH3T3; details: mouse, not told; read-out: permeability
[39] = system: K562; assay: Antiproliferative activity against huamn K562 cell line; type: functional, cell-based; details: Homo sapiens
[40] = Aqueous solubility at pH 7.0; type: physicochemical
[41] = Percent of unbound ligand in human plasma; type: ADME, organism-based
[42] = biological target: Platelet-derived growth factor receptor alpha (Homo sapiens, UniProt P16234); assay: Inhibition of recombinant PDGFRalpha by ELISA
[43] = biological target: Dual specificity mitogen-activated protein kinase kinase; MEK1/2 (Homo sapiens, UniProt P36507+Q02750); assay: Inhibition of MAPKK; type: protein assay
[44] = (§3) Half life in rat at 25 mg/kg, po and 2 mg/kg, iv; type: ADME, organism-based; details: in vivo
[45] = as §3; type: ADME, organism-based; details: in vivo; remark: listed apart in the source
[46] = Volume of distribution in male rat at 25 mg/kg, po and 2 mg/kg, iv; type: ADME, organism-based; details: in vivo, read-out: Vdss
[47] = Volume of distribution in female rat at 25 mg/kg, po and 2 mg/kg, iv; type: ADME, organism-based; details: in vivo, read-out: Vdss
[48] = Clearance in male rat at 25 mg/kg, po and 2 mg/kg, iv; type: ADME, organism-based; details: in vivo
[49] = Clearance in female rat at 25 mg/kg, po and 2 mg/kg, iv; type: ADME, organism-based; details: in vivo
[50] = Bioavailability in male rat at 25 mg/kg, po and 2 mg/kg, iv; type: ADME, organism-based; details: in vivo
[51] = Bioavailability in female rat at 25 mg/kg, po and 2 mg/kg, iv; type: ADME, organism-based; details: in vivo
[52] = Terminal half life in po dosed human; type: ADME, organism-based; details: in vivo, read-out: beta t1/2 (converted)
[53] = system: NIH3T3; assay: Antiproliferative activity against NIH 3T3 cells xenografted in athymic rat measured as inhibition of tumor volume at 6 mg/kg/day after 18 days; type: functional; details: NIH3T3, 432 h
[54] = system: HUVEC; assay: Inhibition of VEGF-stimulated HUVEC cell growth; type: functional, cell-based; details: Homo sapiens
[55] = system: HUVEC; assay: Inhibition of FGF-stimulated HUVEC cell growth; type: functional, cell-based; details: Homo sapiens
[56] = system: Calu-6; assay: Inhibition of paxillin phosphorylation in Calu-6 xenograft tumor model at 20 mg/kg/day, po; type: functional; details: Homo sapiens
[57] = system: A549; assay: Inhibition of paxillin phosphorylation in A549 cells by Western blotting at 1 uM; type: functional; details: Homo sapiens
[58] = system: Calu-6; assay: Inhibition of FAK phosphorylation in Calu-6 xenograft tumor model at 20 mg/kg/day, po; type: functional; details: Homo sapiens

Sequence of Vascular endothelial growth factor receptor 2 (P35968 whole entry): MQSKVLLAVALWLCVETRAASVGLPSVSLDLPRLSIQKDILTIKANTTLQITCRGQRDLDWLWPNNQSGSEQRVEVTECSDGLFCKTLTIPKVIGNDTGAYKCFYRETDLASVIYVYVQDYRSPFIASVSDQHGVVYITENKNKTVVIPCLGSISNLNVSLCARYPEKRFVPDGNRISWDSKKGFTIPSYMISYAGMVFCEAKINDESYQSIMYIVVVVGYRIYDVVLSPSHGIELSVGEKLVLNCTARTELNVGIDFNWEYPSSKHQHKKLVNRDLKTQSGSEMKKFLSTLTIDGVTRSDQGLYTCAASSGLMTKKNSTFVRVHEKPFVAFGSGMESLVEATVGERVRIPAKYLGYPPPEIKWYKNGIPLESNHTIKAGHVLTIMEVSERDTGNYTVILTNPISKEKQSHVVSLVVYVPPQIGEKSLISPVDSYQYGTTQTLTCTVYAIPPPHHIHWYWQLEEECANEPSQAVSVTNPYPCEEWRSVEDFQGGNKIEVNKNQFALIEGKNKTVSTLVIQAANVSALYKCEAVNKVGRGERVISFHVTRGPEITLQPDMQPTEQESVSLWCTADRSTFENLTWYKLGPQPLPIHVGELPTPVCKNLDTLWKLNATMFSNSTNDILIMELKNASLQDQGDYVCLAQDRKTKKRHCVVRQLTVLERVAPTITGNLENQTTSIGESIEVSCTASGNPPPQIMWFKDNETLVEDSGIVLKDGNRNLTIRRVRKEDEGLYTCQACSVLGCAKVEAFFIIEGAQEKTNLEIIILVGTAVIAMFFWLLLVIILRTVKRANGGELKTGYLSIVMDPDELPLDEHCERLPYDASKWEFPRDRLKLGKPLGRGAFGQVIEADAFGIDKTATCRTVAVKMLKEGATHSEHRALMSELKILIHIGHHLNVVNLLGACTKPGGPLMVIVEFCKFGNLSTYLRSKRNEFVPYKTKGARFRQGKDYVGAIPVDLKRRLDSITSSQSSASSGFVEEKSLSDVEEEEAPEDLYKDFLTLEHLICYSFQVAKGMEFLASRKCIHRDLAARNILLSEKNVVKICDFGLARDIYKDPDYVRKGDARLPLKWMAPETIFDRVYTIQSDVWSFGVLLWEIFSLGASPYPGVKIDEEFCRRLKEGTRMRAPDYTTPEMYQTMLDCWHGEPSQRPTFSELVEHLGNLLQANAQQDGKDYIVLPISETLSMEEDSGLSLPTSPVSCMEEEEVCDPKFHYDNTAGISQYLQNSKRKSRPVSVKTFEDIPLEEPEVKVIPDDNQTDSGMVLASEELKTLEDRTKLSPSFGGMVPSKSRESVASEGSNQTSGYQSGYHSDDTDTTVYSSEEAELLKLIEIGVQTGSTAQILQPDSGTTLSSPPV
Sequence of Vascular endothelial growth factor receptor 3 (P35916 whole entry): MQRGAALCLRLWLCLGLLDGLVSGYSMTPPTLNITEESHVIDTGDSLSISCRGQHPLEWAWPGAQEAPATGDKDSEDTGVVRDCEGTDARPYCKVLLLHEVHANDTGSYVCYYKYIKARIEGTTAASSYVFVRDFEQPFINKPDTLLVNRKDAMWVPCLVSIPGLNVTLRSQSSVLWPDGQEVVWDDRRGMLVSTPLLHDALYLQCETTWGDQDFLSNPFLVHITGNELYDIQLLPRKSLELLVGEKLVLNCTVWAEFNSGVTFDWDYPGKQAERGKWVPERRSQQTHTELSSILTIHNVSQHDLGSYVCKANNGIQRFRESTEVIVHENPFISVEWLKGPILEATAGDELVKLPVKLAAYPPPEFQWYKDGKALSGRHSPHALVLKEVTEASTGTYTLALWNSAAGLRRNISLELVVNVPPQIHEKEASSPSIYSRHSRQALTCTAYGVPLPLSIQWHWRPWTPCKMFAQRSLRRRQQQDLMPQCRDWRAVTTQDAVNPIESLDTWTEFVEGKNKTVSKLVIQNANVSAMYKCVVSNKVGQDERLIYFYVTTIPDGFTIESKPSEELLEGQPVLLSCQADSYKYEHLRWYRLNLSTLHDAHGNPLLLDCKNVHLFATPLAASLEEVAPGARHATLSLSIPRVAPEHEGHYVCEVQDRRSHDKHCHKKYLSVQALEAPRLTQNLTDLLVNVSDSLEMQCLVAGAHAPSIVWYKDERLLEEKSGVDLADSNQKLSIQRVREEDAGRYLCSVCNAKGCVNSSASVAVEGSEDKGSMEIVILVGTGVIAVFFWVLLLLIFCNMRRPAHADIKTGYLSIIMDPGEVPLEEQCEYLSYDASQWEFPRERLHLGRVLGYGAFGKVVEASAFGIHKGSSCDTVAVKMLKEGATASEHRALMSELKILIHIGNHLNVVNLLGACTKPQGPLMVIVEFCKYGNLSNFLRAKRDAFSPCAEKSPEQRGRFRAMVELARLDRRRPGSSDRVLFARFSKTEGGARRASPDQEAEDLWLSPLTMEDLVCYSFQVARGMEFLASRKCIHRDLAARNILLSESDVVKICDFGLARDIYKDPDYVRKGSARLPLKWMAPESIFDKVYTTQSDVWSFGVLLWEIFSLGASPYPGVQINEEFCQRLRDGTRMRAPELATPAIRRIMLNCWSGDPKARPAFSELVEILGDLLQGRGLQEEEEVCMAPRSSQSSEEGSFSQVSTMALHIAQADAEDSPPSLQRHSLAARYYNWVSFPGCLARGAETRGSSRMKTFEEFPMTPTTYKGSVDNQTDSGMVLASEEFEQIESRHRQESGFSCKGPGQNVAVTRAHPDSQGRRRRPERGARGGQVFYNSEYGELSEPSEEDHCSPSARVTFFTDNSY
Sequence of Tyrosine-protein kinase CSK (P41240 whole entry): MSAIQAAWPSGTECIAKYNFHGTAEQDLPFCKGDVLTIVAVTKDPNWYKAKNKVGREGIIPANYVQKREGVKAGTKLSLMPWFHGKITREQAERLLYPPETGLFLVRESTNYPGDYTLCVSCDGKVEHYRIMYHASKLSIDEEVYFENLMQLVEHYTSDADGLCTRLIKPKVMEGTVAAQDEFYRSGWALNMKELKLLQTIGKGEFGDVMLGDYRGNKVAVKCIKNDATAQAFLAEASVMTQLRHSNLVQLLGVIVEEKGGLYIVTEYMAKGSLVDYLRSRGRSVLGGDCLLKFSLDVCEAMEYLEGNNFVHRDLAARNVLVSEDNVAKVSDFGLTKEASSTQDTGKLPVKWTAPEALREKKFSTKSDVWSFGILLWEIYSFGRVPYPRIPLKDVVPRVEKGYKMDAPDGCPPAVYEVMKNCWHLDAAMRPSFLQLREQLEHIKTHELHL
Sequence of Aurora kinase B (Q96GD4 whole entry): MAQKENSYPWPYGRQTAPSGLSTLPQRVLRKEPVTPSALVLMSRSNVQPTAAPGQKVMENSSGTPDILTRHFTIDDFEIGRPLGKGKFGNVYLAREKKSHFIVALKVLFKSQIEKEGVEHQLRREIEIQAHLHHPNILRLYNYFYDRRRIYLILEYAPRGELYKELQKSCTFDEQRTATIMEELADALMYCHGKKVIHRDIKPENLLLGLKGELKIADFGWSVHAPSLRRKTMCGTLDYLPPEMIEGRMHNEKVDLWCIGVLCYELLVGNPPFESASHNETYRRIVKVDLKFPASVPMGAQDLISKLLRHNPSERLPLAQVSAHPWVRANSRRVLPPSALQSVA
Sequence of Fibroblast growth factor receptor 1 (P11362 whole entry): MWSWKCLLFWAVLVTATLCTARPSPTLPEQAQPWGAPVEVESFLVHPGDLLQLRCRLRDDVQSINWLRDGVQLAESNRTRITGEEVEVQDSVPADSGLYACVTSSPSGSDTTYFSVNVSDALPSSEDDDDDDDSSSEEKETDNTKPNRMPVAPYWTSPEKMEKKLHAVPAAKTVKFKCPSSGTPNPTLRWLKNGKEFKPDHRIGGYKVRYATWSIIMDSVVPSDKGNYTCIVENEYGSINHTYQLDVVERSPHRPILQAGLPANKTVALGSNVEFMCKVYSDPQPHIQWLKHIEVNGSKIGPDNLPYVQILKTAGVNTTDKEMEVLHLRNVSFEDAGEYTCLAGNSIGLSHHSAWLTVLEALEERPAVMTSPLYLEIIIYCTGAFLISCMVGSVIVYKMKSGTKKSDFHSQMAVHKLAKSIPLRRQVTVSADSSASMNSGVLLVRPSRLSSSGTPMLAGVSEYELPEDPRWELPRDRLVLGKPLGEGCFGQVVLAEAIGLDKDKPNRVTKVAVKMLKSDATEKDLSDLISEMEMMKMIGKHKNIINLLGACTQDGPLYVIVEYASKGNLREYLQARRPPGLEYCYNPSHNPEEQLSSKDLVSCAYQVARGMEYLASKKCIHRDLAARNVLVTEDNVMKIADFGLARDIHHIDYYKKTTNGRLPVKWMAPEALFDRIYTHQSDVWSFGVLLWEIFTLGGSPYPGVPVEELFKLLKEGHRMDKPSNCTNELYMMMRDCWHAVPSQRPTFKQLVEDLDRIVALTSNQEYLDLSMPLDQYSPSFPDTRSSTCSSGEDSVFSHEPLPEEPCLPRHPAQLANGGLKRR
Sequence of 3-phosphoinositide-dependent protein kinase 1 (O15530 whole entry): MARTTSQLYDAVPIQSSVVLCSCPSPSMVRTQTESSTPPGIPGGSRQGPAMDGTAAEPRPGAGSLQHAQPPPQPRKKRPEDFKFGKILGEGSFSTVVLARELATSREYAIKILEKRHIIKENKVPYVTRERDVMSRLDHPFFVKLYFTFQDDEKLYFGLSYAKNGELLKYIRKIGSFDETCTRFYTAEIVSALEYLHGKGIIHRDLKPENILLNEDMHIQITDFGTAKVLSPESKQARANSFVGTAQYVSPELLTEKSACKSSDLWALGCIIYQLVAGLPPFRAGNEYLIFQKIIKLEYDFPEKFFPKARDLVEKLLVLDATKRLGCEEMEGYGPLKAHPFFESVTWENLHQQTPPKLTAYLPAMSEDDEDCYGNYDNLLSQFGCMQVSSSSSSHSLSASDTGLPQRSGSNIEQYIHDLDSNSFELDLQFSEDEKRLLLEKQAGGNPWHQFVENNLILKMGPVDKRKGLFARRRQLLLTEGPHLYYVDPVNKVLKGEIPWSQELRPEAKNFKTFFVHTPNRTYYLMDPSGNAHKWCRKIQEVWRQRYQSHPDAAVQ

CN1CCC(COc2cc(OC3CCOCC3)c3c(Nc4c(Cl)ccc5c4OCO5)ncnc3c2)CC1
IC50 [1]: 0.3 µM | clearance [2]: 132 mL/min/kg | AUC(0-t) at 24 h [3]: 31000 ng·h/mL | T1/2 [4]: 22 h | Vdss [5]: 38 L/kg | IC50 [6]: 2 µM | bioavailability [7]: 57% | bioavailability [8]: 93% | Vd [9]: 23.4 L/kg | IC50 [10]: 0.006 µM

Clc1ccc2c(c1Nc1ncnc3cc(OCCCN4CCCC4)cc(OC4CCOCC4)c13)OCO2
IC50 [1]: 0.15 µM | pKa [11]: 9.5 | logD [12]: 2.3 | solubility [13]: 1000 µM (≈ 527 µg/mL) | fraction unbound [14]: 0.16 | fraction unbound [15]: 0.17 | IC50 [16]: 0.27 µM | IC50 [17]: 0.003 µM | IC50 [18]: > 33 µM | IC50 [19]: > 10 µM | IC50 [20]: 37 µM | IC50 [21]: 8.9 µM | IC50 [22]: > 10 µM | IC50 [23]: > 10 µM | IC50 [24]: > 10 µM | IC50 [25]: > 10 µM | IC50 [26]: > 10 µM | IC50 [27]: > 10 µM | IC50 [28]: > 10 µM | IC50 [29]: > 10 µM | AUC(0-t) at 24 h [3]: 13000 ng·h/mL | half-life [30]: 3.5 h | half-life [31]: 29 h | Vd [32]: 15 L/kg | Vd [33]: 38 L/kg | IC50 [6]: 2.5 µM | clearance [34]: 48.3 mL/min/kg | clearance [35]: 15 mL/min/kg | bioavailability [36]: 60% | bioavailability [7]: 85% | inhibition in vivo at 10 mg/kg/day [37]: 90% | Papp A→B [38]: > 1 ×10⁻⁶ cm/s | IC50 [10]: < 0.004 µM

CN1CCN(CCOc2cc(OC3CCOCC3)c3c(Nc4c(Cl)ccc5c4OCO5)ncnc3c2)CC1 [SARACATINIB]
IC50 [1]: 0.14 µM | IC50 [39]: 0.22 µM | pKa [11]: 7.98 | logD [12]: 2.9 | solubility [40]: 240 µM (≈ 130 µg/mL) | fraction unbound [41]: 0.09 | fraction unbound [14]: 0.13 | fraction unbound [15]: 0.14 | IC50 [16]: 0.84 µM | IC50 [18]: > 100 µM | IC50 [19]: > 10 µM | IC50 [42]: 10 µM | IC50 [20]: > 10 µM | IC50 [21]: > 10 µM | IC50 [22]: 10 µM | IC50 [43]: 14 µM | IC50 [23]: > 10 µM | IC50 [24]: > 10 µM | IC50 [25]: > 10 µM | IC50 [26]: > 10 µM | IC50 [27]: > 10 µM | IC50 [28]: > 10 µM | AUC(0-t) at 24 h [3]: 12000 ng·h/mL | half-life [44]: 5 h | half-life [45]: 5 h | half-life [31]: 7 h | Vd [46]: 10 L/kg | Vd [47]: 10 L/kg | Vd [33]: 11.6 L/kg | clearance [48]: 20 mL/min/kg | IC50 [6]: 20.9 µM | clearance [49]: 16.7 mL/min/kg | clearance [35]: 11.7 mL/min/kg | bioavailability [50]: 79% | bioavailability [51]: 92% | bioavailability [7]: > 50% | half-life [52]: 40 h | inhibition in vivo at 6 mg/kg/day [53]: > 95% | IC50 [54]: > 5 µM | IC50 [55]: > 5 µM | inhibition in vivo at 20 mg/kg/day [56]: > 80% | inhibition at 1 µM [57]: 70% | inhibition in vivo at 20 mg/kg/day [58]: > 80% | Papp A→B [38]: > 30 ×10⁻⁶ cm/s
